The numbers were not newly measured in publication PMC5732038 (ACS chemical biology, 2017), which cites them from elsewhere.

The test system of the data set is methicillin resistant Staphylococcus aureus (MRSA). As to conditions: several Gram-positive bacteria including MRSA.

For the substance Sublancin, the antimicrobial activity result is recorded as “antimicrobial activity”.
